Measurements as given in patent US20090137527A1, “Compositions and methods for modulating immune function” (Resolvyx Pharmaceuticals, Inc., priority 2007, published 2009).

Experiments:
rats with CIA = assay: Rat collagen-induced arthritis (CIA): paw swelling and knee histopathology; format: in vivo
Description: Female Lewis rats were anesthetized with 3-5% isoflurane and arthritis was induced by intradermal injection of 0.3 mL (100 μL at three different sites) of an emulsion […] 1.5 mg/mL of type II bovine collagen, CII (Elastin Products Inc., Cat# CM276), in incomplete Freund's adjuvant (IFA) at the base of the tail on day 0 and 6. Control rats were injected with an equal amount of IFA only.
The volume of both hind paws were measured using a water displacement plethysmometer (Ugo Basile, Biological Research Apparatus, Italy), and the onset of arthritis was indicated by increased paw volume, which appeared approximately on day 11 post injection. Both paw volumes and body weights were measured throughout the study every 2-3 days. Nineteen to twenty-one days after CII injection, the rats were euthanized with CO2. Blood was collected by cardiac puncture and serum was saved.
were measured under two different treatment regimens. In the first (prophylactic) treatment regimen, Compound X was administered i.v., twice daily, at 0.3 mg/kg from day 0 to day 6 or 10. For ex vivo studies, animals were euthanized on day 6 after the last injection and their inguinal lymph nodes were harvested. […] For ex vivo studies, animals were euthanized on day 16 and inguinal lymph nodes were harvested. Venous blood samples were collected during the course of treatment. For CD3 activation, 96-well flat bottom plates were coated with anti-CD3 mAb (eBioscience, clone G4.18) 1 μg/mL. Plates were stored overnight at 4° C., and were subsequently rinsed with PBS once before use. Bovine Type II collagen for tissue culture was purchased from Chondrex (Cat# 2022) and was reconstituted according to the manufacturer's instructions. All data were processed and analyzed by t-test using GraphPad Prism software.
After the animals were euthanized, both hind paws and knees were removed, hind paws were weighed, and the paws and knees were placed in formalin. Following 1-2 days in fixative and 4-5 days in decalcifier, the ankle joints were cut in half longitudinally, and the knees were cut in half in the frontal plane. The joints were then processed, embedded, sectioned and stained with toluidine blue. Collagen arthritic ankles and knees were given scores of 0-5 for inflammation, pannus formation and bone resorption according to the following criteria:
1 Minimal infiltration of inflammatory cells in periarticular tissue 2 Mild infiltration 3 Moderate infiltration with moderate edema 4 Marked infiltration with marked edema 5 Severe infiltration with severe edema […]

spleen cells = assay: In vitro treatment of mouse spleen cells, CD3-induced cytokine production; format: cell-based; details: 10 nM or 1000 nM, 5 days culture, then anti-CD3 overnight
Description: BALB/c female mice, 6-8 weeks old, were euthanized and spleens were removed under sterile conditions. Spleens were gently pressed through a nylon strainer. Spleen cells and remaining connective tissue mass were incubated in a 6-well plate with 4 mL of Growth Media (RPMI 1640 supplemented with 10% FCS). Compound X was added to give a final concentration of 10 nM or 1000 nM. Control groups were spleen cells without addition of Compound X. All groups were in triplicates (3 animals per group). Plates were cultured in a 37° C., 5% CO2 incubator. Once a day, 1 mL of culture media was removed from each well and replaced with 1 mL fresh growth media containing the same concentration of Compound X or fresh media only. Culture was continued for 5 days. All cells were then removed from the plates. Cells were passed through a nylon strainer to remove any aggregates, washed, counted and adjusted to 2.5×10^6/mL in growth media. To anti-CD3 coated plates (coated per the procedure described below) were added 200 μL, or 5×10^5 cells per well. Cells were cultured in a 37° C., 5% CO2 incubator overnight. Supernatants were harvested, and cytokine levels were measured by Bioplex.
For CD3 stimulation, anti-mouse CD3 mAb (BD Pharmingen clone 145-2C11) was used at 0.2 μg/mL in PBS to coat flat bottom 96-well plate at 4° C. overnight. Plates were rinsed twice with PBS before use.

[1] = tested on: murine DNFB-induced DTH model; assay: DNFB-induced delayed-type-hypersensitivity (DTH) model, ear swelling; format: in vivo, mouse
Description: Ear-swelling (swelling of the skin on the pinnae) was the endpoint of this model. This study was carried out over 6 to 7 days, with events occurring as described below.
Mice (female BALB/c; n=10/group) were immunized with 0.5% of DNFB dissolved in acetone/olive oil. Sensitization was done with the contact allergen, wherein 20 μL of the solution was placed on the footpads of the animals.
[…] The mice were challenged at day 5. 10 μL of a 0.8% DNFB solution was topically applied externally on the right ear of the animal. As control, the left ear was treated the same way with vehicle alone (acetone/olive oil).
Animals were anesthetized with isoflurane and the ear swelling was measured within 24 to 48 hours after challenge using a micrometer. The micrometer calipers were closed around the top portion of the each external ear until resistance from the ear was felt. […]

[2] = therapeutic, twice daily i.v. 0.3 mg/kg, days 8 to 19

SMILES: CC[C@@H](O)/C=C/C=C\C[C@@H](O)/C=C/C=C/C=C\[C@@H](O)CCCC(=O)O [Compound X]
- paw swelling (as measured by ankle diameter) (rats with CIA; prophylactic, twice daily i.v. 0.3 mg/kg, days 0 to 10): significant reduction
- bone resorption and joint damage (rats with CIA; therapeutic dosing): protected
- knee histopathology scores: inflammation, pannus, cartilage damage, bone resorption (rats with CIA; [2]): significant reduction
- mean ankle joint volume (rats with CIA; [2]): significant reduction
- CD3-induced cytokine production of spleen cells after in vitro treatment (spleen cells): inhibited
- maximal efficacy, inhibition of tissue (ear) swelling ([1]; 30 μg/kg i.v., 15 minutes before challenge, ear thickness 24 hours after challenge): 38%
- inhibition of the DTH response, Compound X versus dexamethasone ([1]; dexamethasone 60 minutes prior to DNFB challenge): comparable levels of inhibition
- DNFB-DTH response, two regimens ([1]; i.p. 0.03 mg/kg once daily day 0 to day 5, or single injection on day 5): comparable and significant reduction
- tissue swelling, dose dependence ([1]; i.v., 15 minutes before challenge): dose-dependently reduced
